Earlier results in US6811967B2 (The University of Manitoba, priority 2001, dated 2004).

What was measured:
human SSAT = biological target: T1, human SSAT (Homo sapiens, UniProt P21673); conditions: human SSAT expressed in E. coli (Parry et al. 1995)
T1 construct: host or cells: E. coli

[1] = weak base, primary amine
[2] = Sprague-Dawley rats, same therapeutic dose (Goralski et al. 1999)

T1 sequence (P21673 whole entry): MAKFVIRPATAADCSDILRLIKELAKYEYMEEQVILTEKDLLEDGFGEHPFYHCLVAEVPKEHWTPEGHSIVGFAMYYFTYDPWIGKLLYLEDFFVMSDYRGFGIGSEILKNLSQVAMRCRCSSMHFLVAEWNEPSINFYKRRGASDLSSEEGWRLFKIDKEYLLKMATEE

Structure (SMILES) | acetylation by SSAT (human SSAT) | pKa [1] | urinary excretion of acetylamantadine [2]
N=C(N)NCCCCCCC(=O)NC(O)C(=O)NCCCCNCCCN (centres unmarked) [1-deoxyspergualin] | acetylated by SSAT | – | –
CCCCNCCCN [N-(n-butyl)-1,3-diaminopropane] | acetylated by SSAT | – | –
NCCCNCCS [WR1065, S-2-(3-aminopropylamino) ethanethiol] | acetylated by SSAT | – | –
NC12CC3CC(CC(C3)C1)C2 [amantadine, 1-adamantanamine] | – | 10.1 | did not excrete acetylamantadine
